pIC50: −log10 of the molar value.

Assay in the first series: not given
Details: not given
Compound `O=C1Nc2cc(-c3cccc(O)c3)ccc2CN1c1csc(-c2ccncc2)n1` [Example 31, 7-(3-Hydroxyphenyl)-3-(2-(4-pyridyl) (1,3-thiazol-4-yl))-1,3,4-trihydroquinazolin-2-one] had a melting point of 320 to 322 °C.

Consider `O=C1Nc2cc(-c3cccc(OCCN4CCCCC4)c3)ccc2CN1c1csc(-c2ccncc2)n1` [Example 32, 7-[3-(2-Piperidylethoxy)phenyl]-3-(2-(4-pyridyl)(1,3-thiazol-4-yl))-1,3,4-trihydroquinazolin-2-one], for which the melting point lay within 206 to 208 °C.

For `O=C1Nc2cc(C(F)(F)F)ccc2CN1c1nc(-c2ccncc2)ns1` [Example 52, 3-(3-(4-Pyridyl)(1,2,4-thiadiazol-5-yl))-7-(trifluoromethyl)-1,3,4-trihydroquinazolin-2-one], the melting point is > 300 °C.

Take `O=C1Nc2ccccc2CN1c1nc(-c2cccnc2)cs1` [Example 18, 3-(4-(3-Pyridyl)-1,3-thiazol-2-yl)-1,3,4-trihydroquinazolin-2-one]: the melting point is 269 to 272 °C.

On to `O=C1Nc2cccc(F)c2CN1c1nc(-c2ccncc2)cs1` [Example 45, 5-Fluoro-3-(4-(4-pyridyl)(1,3-thiazol-2-yl))-1,3,4-trihydroquinazolin-2-one], for which the melting point was > 300 °C.

As to `Cc1ccc(Oc2ccc3c(c2)CN(c2nc(-c4ccncc4)cs2)C(=O)N3)c(C)c1` [Example 40, 6-(2,4-Dimethylphenoxy)-3-(4-(4-pyridyl)(1,3-thiazol-2-yl))-1,3,4-trihydroquinazolin-2-one], the melting point was in the range of 254 to 258 °C.

Regarding `O=C1Nc2cc(CN3CCOCC3)ccc2CN1c1csc(-c2ccncc2)n1` [Example 27, 7-(Morpholin-4-ylmethyl)-3-(2-(4-pyridyl)(1,3-thiazol-4-yl))-1,3,4-trihydroquinazolin-2-one], the melting point lay in the range of 249 to 250 °C.

Turning to `O=C1Nc2cccc(Br)c2CN1c1csc(-c2ccncc2)n1` [Example 6, 5-Bromo-3-(2-(4-pyridyl)(1,3-thiazol-4-yl))-1,3,4-trihydroquinazolin-2-one], the melting point was in the range of 283 to 284 °C.

The compound `O=C1Nc2cc(-c3ccccc3)ccc2CN1c1csc(-c2ccncc2)n1` [Example 12, 7-Phenyl-3-(2-(4-pyridyl)(1,3-thiazol-4-yl))-1,3,4-trihydroquinazolin-2-one] came in with a melting point of 248 to 250 °C.

On to `CCc1cc(-c2nc(N3Cc4ccccc4NC3=O)cs2)ccn1` [Example 35, 3-[2-(2-Ethyl-4-pyridyl)-1,3-thiazol-4-yl]-1,3,4-trihydroquinazolin-2-one], for which the melting point was 239 to 240 °C.

A further series is described as follows: Cell Proliferation Assay (BrdU incorporation). Type of series: cell-based. The conditions noted are these: Homo sapiens; 48 h incubation, BrdU labeling; cell line not specified; read-out: inhibited cell proliferation IC50. Here is the method: Cell proliferation was measured using a calorimetric immunoassay (B/M Roche #164 7229), based on the measurement of pyrimidine analog BrdU incorporation during DNA synthesis in proliferating cells. Cells, e.g., human PC-3 prostate carconima cells, huFSF normal human foreskin fibroblast cells, HCT 116 human colon carcinoma cells or HT 29 human colon carcinoma cells, were cultured in a 96-well plate for 24 h, until a cell count of 3×10^3 to 6×10^3 cells per well in duplicate wells were achieved, in a well volume of 200 μl. The media was changed and 1 μl of 200× control inhibitors or compounds was added to each well. Cells are incubated for 48 h at 37° C. The cells were labeled with BrdU for 4 h at 37° C. The labeling medium was removed and in one step, the cells were fixed and the DNA was denatured (30 min at RT). Anti-BrdU-POD antibody was added to bind to the BrdU incorporated in newly synthesized cellular DNA (60–90 min at RT). The cells were washed 3×with washing buffer, substrate (100 μl) was added and the cells were incubated for 10 min at RT. The substrate reaction was stopped by adding 25 μl of 1M H2SO4. The amount of BrdU incorporated was quantified by measuring the absorbance at 450 nm using ELISA reader. IC50's were calculated using GraFit (Sigma).
A general note: Dividing cells build labelled thymidine or BrdU into new DNA.
For `O=C1Nc2cc(-c3cccc(O)c3)ccc2CN1c1csc(-c2ccncc2)n1` [Example 31, 7-(3-Hydroxyphenyl)-3-(2-(4-pyridyl) (1,3-thiazol-4-yl))-1,3,4-trihydroquinazolin-2-one], the pIC50 is > 5.30.

For `Nc1ccc2c(c1)NC(=O)N(c1csc(-c3ccncc3)n1)C2` [Example 28, 7-Amino-3-(2-(4-pyridyl)(1,3-thiazol-4-yl))-1,3,4-trihydroquinazolin-2-one], the pIC50 is > 5.30.

`O=C1Nc2cc(-c3cccc(OCCN4CCCCC4)c3)ccc2CN1c1csc(-c2ccncc2)n1` [Example 32, 7-[3-(2-Piperidylethoxy)phenyl]-3-(2-(4-pyridyl)(1,3-thiazol-4-yl))-1,3,4-trihydroquinazolin-2-one]: the pIC50 was > 5.30.

As for `O=C1Nc2cccc(-c3ccccc3)c2CN1c1csc(-c2ccncc2)n1` [Example 34, 5-Phenyl-3-(2-(4-pyridyl)(1,3-thiazol-4-yl))-1,3,4-trihydroquinazolin-2-one], the pIC50 was > 5.30.

Consider `O=C1Nc2cccc(CN3CCCCC3)c2CN1c1csc(-c2ccncc2)n1` [Example 15, 5-(Piperidylmethyl)-3-(2-(4-pyridyl)(1,3-thiazol-4-yl))-1,3,4-trihydroquinazolin-2-one], for which the pIC50 was > 5.30.

Consider `COC(=O)c1cccc2c1CN(c1csc(-c3ccncc3)n1)C(=O)N2` [Example 2, Methyl 2-oxo-3-(2-(4-pyridyl)(1,3-thiazol-4-yl))-1,3,4-trihydroquinazoline-5-carboxylate], for which the pIC50 was > 5.30.

Usually melting point stands for the temperature of the solid-liquid transition.

For the origin of these results see patent US7119111B2, “2-oxo-1,3,4-trihydroquinazolinyl derivatives and methods of use” (Amgen, Inc., priority 2002, dated 2006).
